One series concerns HepG2 cells. As to the kind of experiment: In vitro cytotoxicity assay (MTT cell viability) in HepG2 cells. Type of series: cell-based, human. An outline of the steps:
(§1)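 Read-out: MTT formazan absorbance at 492 nm, expressed as % of vehicle signal; CC50 by 4-parameter non-linear regression. Parental HepG2, 20,000 cells/well, treated 7 days with compound from 30 μM down to 1.0 nM.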

Series [1] concerns HBV replication in HepAD38 cells. Description: Anti-HBV replication assay in HepAD38 cells (QPCR of extracellular HBV DNA). Type of series: cell-based, HBV (genotype D, serotype ayw). The conditions noted are these: 7 days incubation, extracellular HBV DNA by QPCR, read-out: Anti-HBV EC50. An outline of the steps:
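HepAD38 cells (HepG2 carrying tet-repressible HBV genotype D genome) induced by tetracycline withdrawal, treated 7 days at 37 °C with compound ([…], 1-log10 dilutions). Extracellular HBV DNA quantified by QPCR against a standard curve, normalised to DMSO; EC50 from 4-parameter fit.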

In a further series the test system is HBV. The note with it: Phase 1b clinical trial, 600 mg bid dosing for 29 days; cited from earlier work.
A short description of series [2]: In vitro cytotoxicity assay (MTT cell viability) in HepG2 cells. Type of series: cell-based, human. The note with it: human. In outline: as §1
The mark [3] stands for this setting: HepG2 cells, MTT cell viability, 7-day incubation, tested 30 μM to 1.0 nM, read-out: HepG2 CC50.

Like-named read-outs stand apart in the source and are kept apart here. Where only a bound is given, the exact number is not on record here.

Here are results for 22 compounds from patent publication US20190375708A1 (VenatoRx Pharmaceuticals, Inc., priority 2018, published 2019).

What is called CC50 is the concentration that lowers cell viability or growth by half. The EC50 is the concentration at which the effect is half-maximal. Regarding “(S)-2-chloro-N-(4-fluoro-3- methylphenyl)-5-(2-((1- hydroxybutan-2-yl)amino)-2- oxoacetyl)-14-dimethyl-1H- pyrrole-3-carboxamide [Example 389]”, the CC50 in the series on HepG2 cells (setting [3]) fell in the range of 5000 to 30000 nM. Besides, the 50% effective concentration (EC50) in series [1] was over 1000 nM.
On the same counts, the results for `Cc1cc(NC(=O)c2c(C)c(C(=O)C3=Nc4ccccc4B(O)O3)n(C)c2C)ccc1F` [Example 256, N-(4-fluoro-3-methylphenyl)-5-(1-hydroxy-1H-enxo[c][1,5,2]oxazaborinine-3-carbonyl)-1,2,4-trimethyl-1H-pyrrole-3-carboxamide] are 5000 to 30000 nM and 50 to 499 nM.
Turning to `Cc1cc(NC(=O)c2c(C)c(C(=O)C(=O)N[C@@H]3[C@@H]4C[C@@H]5C[C@H]3C[C@@](O)(C5)C4)n(C)c2C)ccc1F` [Example 74, N-(4-fluoro-3-methylphenyl)-5-(2-(((1R,2s,3S,5s,7s)-5-hydroxyadamantan-2-yl)amino)-2-oxoacetyl)-1,2,4-trimethyl-1H-pyrrole-3-carboxamide], in the series with HepG2 cells (setting [3]), the CC50 is over 30000 nM. The EC50 in series [1] is under 50 nM.
For `Cc1c(C(=O)Nc2ccc(F)nc2)c(C)n(C)c1C(=O)C(=O)NC12C[C@@H]3C[C@@H](CC(O)(C3)C1)C2` [Example 16, N-(6-fluoropyridin-3-yl)-5-(2-(((1r,3s,5R,7S)-3-hydroxyadamantan-1-yl)amino)-2-oxoacetyl)-1,2,4-trimethyl-1H-pyrrole-3-carboxamide], the CC50 in the series with HepG2 cells (setting [3]) is 5000 to 30000 nM. In addition, the EC50 in series [1] was 50 to 499 nM.
For `O=C(Nc1cc(F)c(F)c(F)c1)c1ccc(F)c(S(=O)(=O)N2CCC(O)CC2)c1` [NVR 3-778], the “reduction in HBV DNA” value in the series on HBV is −1.7 log 10.
On to “N-(4-fluoro-3-methylphenyl)-1,2,4-trimethyl-5-(2-(((1s,4s)-4-morpholinocyclohexyl)amino)-2-oxoacetyl)-1H-pyrrole-3-carboxamide [Example 265]”, for which the CC50 with HepG2 cells (setting [3]) is over 30000 nM. In addition, the EC50 in series [1] was in the range of 50 to 499 nM.
Turning to `Cc1c(C(=O)Nc2ccc(F)nc2)c(C)n(C)c1C(=O)C(=O)N[C@]12C[C@@H]3C[C@@H](C[C@H]1C3)C2` [Example 19, N-(6-fluoropyridin-3-yl)-5-(2-(((2R,3as,5S,6as)-hexahydro-2,5-methanopentalen-3a(1H)-yl)amino)-2-oxoacetyl)-1,2,4-trimethyl-1H-pyrrole-3-carboxamide], the CC50 in the series with HepG2 cells (setting [3]) is 5000 to 30000 nM. Further, the EC50 in series [1] is under 50 nM.
The like results for “(S)-4-chloro-N-(4-fluoro-3- methylphenyl)-5-(2-((1- hydroxybutan-2-yl)amino0-2- oxoacetyl)-1,2-dimethyl-1H- pyrrole-3-carboxamide [Example 368]” were, in that order, over 30000 nM and 50 to 499 nM.
`Cc1cc(NC(=O)c2c(Cl)c(C(=O)C(=O)NC3(CO)CC3)n3c2CCCC3)ccc1F` [Example 491, 2-chloro-N-(4-fluoro-3-methylphenyl)-3-(2-((1-(hydroxymethyl)cyclopropyrl)amino)-2-oxoacetyl)-5,6,7,8-tetrahydroindolizine-1-carboxamide] yielded a CC50 with HepG2 cells of over 30000 nM. The concentration for a half-maximal effect (EC50) in series [1] is under 50 nM.
In turn, `Cc1cc(NC(=O)c2c(C)c(C(=O)C(=O)N[C@@H]3CCC[C@@H]3O)n(C)c2Cl)ccc1F` [Example 390, 2-chloro-N-(4-fluoro-3-methylphenyl)-5-(2-(((1R,2S)-2-hydroxycyclopentyl)amino)-2-oxacetyl)-1,4-dimethyl-1H-pyrrole-3-carboxamide] displayed a CC50 at 7 days in series [2] of over 30000 nM. The EC50 in series [1] (Hepatitis B virus, 168 h) is 50 to 499 nM.
Compound `Cc1cc(Cl)cc(NC(=O)c2c(C)c(C(=O)C(=O)N[C@H]3CNC(=O)C3)n(C)c2C)c1` [Example 684, (R)-N-(3-chloro-5-methylphenyl)-1,2,4-trimethyl-5-(2-oxo-2-((5-oxopyrrolidin-3-yl)amino)acetyl)-1H-pyrrole-3-carboxamide] registered a cytotoxic concentration (CC50) at 7 days in series [2] of over 30000 nM. The EC50 in series [1] (Hepatitis B virus, 168 h) is under 50 nM.
The like results for `Cc1cc(NC(=O)c2cc(C(=O)C(=O)NC(C)C)n3c2CCCC3)ccc1F` [Example 412, N-(4-fluoro-3-methylphenyl)-3-(2-(isopropylamino)-2-oxoacetyl)-5,6,7,8-tetrahydroindolizine-1-carboxamide] were, in that order, 5000 to 30000 nM and 50 to 499 nM.
The like results for `Cc1noc([C@@H](C)NC(=O)C(=O)c2cc(C(=O)Nc3ccc(F)c(C)c3)c3n2CCCC3)n1` [Example 431, (R)-N-(4-fluoro-3-methylphenyl)-3-(2-((1-(3-methyl-1,2,4-oxadiazol-5-yl)ethyl)amino)-2-oxoacetyl)-5,6,7,8-tetrahydroindolizine-1-carboxamide] were, in that order, over 30000 nM and 50 to 499 nM.
On the same counts, the results for `Cc1c(C(=O)Nc2cc(F)c(F)c(F)c2)c(C)n(C)c1C(=O)C(=O)Nc1cccnc1` [Example 320, 1,2,4-trimethyl-5-(2-oxo-2-(pyridin-3-ylamino)acetyl)-N-(3,4,5-trifluorophenyl)-1H-pyrrole-3-carboxamide] are over 30000 nM and under 50 nM.
Consider `Cc1c(C(=O)Nc2ccc(F)nc2)c(C)n(C)c1C(=O)C(=O)NC1(C)CCOCC1` [Example 325, N-(6-fluoropyridin-3-yl)-1,2,4-trimethyl-5-(2-((4-methyltetrahydro-2H-pyran-4-yl)amino)-2-oxoacetyl)-1H-pyrrole-3-carboxamide], for which, in series [2], the 50% cytotoxic concentration (CC50) at 7 days was over 30000 nM. The EC50 in series [1] (Hepatitis B virus, 168 h) was in the range of 50 to 499 nM.
Turning to `Cc1cc(NC(=O)c2c(C)c(C(=O)C(=O)NC3(CO)CCCCC3)n(C)c2C)ccc1F` [Example 599, N-(4-fluoro-3-methylphenyl)-5-(2-((1-(hydroxymethyl)cyclohexyl)amino)-2-oxoacetyl)-1,2,4-trimethyl-1H-pyrrole-3-carboxamide], the CC50 at 7 days in series [2] was over 30000 nM. Also, the concentration giving a half-maximal response (EC50) in series [1] (Hepatitis B virus, 168 h) was under 50 nM.
The like results for `Cc1cc(NC(=O)c2c(C)c(C(=O)C(=O)Nc3ccc(F)cn3)n(C)c2C)cnc1F` [Example 338, N-(6-fluoro-5-methylpyridin-3-yl)-5-(2-((5-fluoropyridin-2-yl)amino)-2-oxoacetyl)-1,2,4-trimethyl-1H-pyrrole-3-carboxamide] were, in that order, over 30000 nM and 500 to 1000 nM.
In series [2], `Cc1cc(NC(=O)c2c(C)c(C(=O)C(=O)N[C@@H]3CCC[C@H]3O)n(C)c2C)ccc1F` [Example 95, N-(4-fluoro-3-methylphenyl)-5-(2-(((1R,2R)-2-hydroxycyclopentyl)amino)-2-oxoacetyl)-1,2,4-trimethyl-1H-pyrrole-3-carboxamide] gave a CC50 at 7 days of over 30000 nM. The EC50 in series [1] (Hepatitis B virus, 168 h) was under 50 nM.
On the same counts, the results for `Cc1cc(NC(=O)c2c(C)c(C(=O)C(=O)NC3CCC(F)(F)CC3)n(C)c2C)cnc1F` [Example 343, 5-(2-((4,4-difluorocyclohexyl)amino)-2-oxoacetyl)-N-(6-fluoro-5-methylpyridin-3-yl)-1,2,4-trimethyl-1H-pyrrole-3-carboxamide] are over 30000 nM and 50 to 499 nM.
On to `Cc1cc(NC(=O)c2c(C)c(C(=O)C(=O)N[C@@H](C(N)=O)[C@@H](C)O)n(C)c2C)ccc1F` [Example 61, 5-(2-(((2R,3R)-1-amino-3-hydroxy-1-oxobutan-2-yl)amino)-2-oxoacetyl)-N-(4-fluoro-3-methylphenyl)-1,2,4-trimethyl-1H-pyrrole-3-carboxamide], for which the CC50 at 7 days in series [2] was over 30000 nM. In addition, in series [1] (Hepatitis B virus, 168 h), the EC50 fell in the range of 50 to 499 nM.
The compound `Cc1cc(NC(=O)c2cc(C(=O)C(=O)NC(C)(C)C(N)=O)n3c2CCCC3)ccc1F` [Example 406] displayed a CC50 at 7 days in series [2] of over 30000 nM. For the same compound, the EC50 in series [1] (Hepatitis B virus, 168 h) fell in the range of 500 to 1000 nM.
For the compound `COCC(C)(C)NC(=O)C(=O)c1c(C)c(C(=O)Nc2ccc(F)c(C)c2)c(C)n1CCF` [Example 241, N-(4-fluoro-3-methylphenyl)-1-(2-fluoroethyl)-5-(2-((1-methoxy-2-methylpropan-2-yl)amino)-2-oxoacetyl)-2,4-dimethyl-1H-pyrrole-3-carboxamide], the CC50 at 7 days in series [2] is over 30000 nM. Further, the EC50 in series [1] (Hepatitis B virus, 168 h) is under 50 nM.
